Assay results reported in patent US20110046223A1, “TREATMENT OF NEUROFIBROMATOSIS” (RAMOT AT TEL-AVIV UNIVERSITY LTD., priority 2006, published 2011).

Columns and labels:
phospho-Akt = assay: steady-state phospho-Akt, Western immunoblotting; type: cell-based, human
Description: Unless otherwise indicated, cells were lysed 48 hours after being treated with lysis buffer, as described in Haklai, et al., supra. […] Protein bands were visualized by ECL and quantified by densitometry with Image Master VDS-CL (Amersham) using TINA 2.0 software (Ray Tests). To obtain reliable comparisons between replicated experiments for statistical analysis, a standardization procedure was used, in which the density of each given protein band as recorded with its specific Ab, was normalized. […] The standard average density was defined as 1.0, and each of the individually determined bands was related to this value. […] Actin cytoskeletal elements were labeled with rhodamine-phalloidin, and digital fluorescence images were collected on a Zeiss LSM 510 confocal microscope fitted with fluorescein and rhodamine filters, as described in Gana-Weisz, M., et al., supra.
Next, to determine whether down-regulation of active Ras by FTS was accompanied by inhibition of Ras signaling, the effect of FTS on steady-state levels of phospho-ERK, phospho-Akt, and RalA-GTP as read-outs of the three prominent Ras pathways, Ras/Raf/MEK/ERK, Ras/PI3K/Akt, and Ras/RalGEF/RalA, respectively, was examined. […]

[1] = tested on: NF-1 cell lines T265P21, ST88-14, and 90-8; assay: actin stress fibers, rhodamine-phalloidin confocal microscopy; type: cell-based, human; settings: T265P21, ST88-14, and 90-8, 75 μM FTS; controls 82%-87%
Description: (§1) The human NF-1 MPNST cell lines ST88-14, T265P21 and 90-8 and the non-NF-1 human MPNST cell line STS26T were obtained from Dr. Nancy Ratner. T265P21, 90-8, and ST88-14 cells were maintained in RPMI/15% fetal calf serum (FCS) medium and STS26T cells were maintained in DMEM/10% FCS, as described in Weisz, B., et al., supra. Cells were plated at a density of 1×10^6 cells per 10-cm plate for biochemical and immunoblotting assays, 2.5×10^3 cells/well in 24-well plates for cell-growth assays, or on glass cover slips (5×10^4 cells per 35-mm dish) for labeling of actin cytoskeletal elements. […]
(§2) Unless otherwise indicated, cells were lysed 48 hours after being treated with lysis buffer, as described in Haklai, et al., supra. […] Protein bands were visualized by ECL and quantified by densitometry with Image Master VDS-CL (Amersham) using TINA 2.0 software (Ray Tests). To obtain reliable comparisons between replicated experiments for statistical analysis, a standardization procedure was used, in which the density of each given protein band as recorded with its specific Ab, was normalized. […] The standard average density was defined as 1.0, and each of the individually determined bands was related to this value. […]

non-NF-1 STS26T cells = assay: as above; type: cell-based, human; settings: 75 μM FTS, mean±SD, n=3, P<0.05
Description: as §1, §2

ST88-14 cells = assay: soft agar assay, anchorage-independent growth; type: cell-based; settings: Homo sapiens, 504 h, 3 weeks, read-out: inhibition of colony formation
Description: (§3) Noble agars (2% and 0.6%; Difco, Sparks, Md.) were prepared in double-distilled water and autoclaved. The 2% agar was melted and mixed with medium (DMEM X2 with 20% FCS, 100 μg/mL penicillin, and […]) and the mixture (50 μL) was placed in 96-well plates to provide the base agar (at a final concentration of 1%).
(§4) To determine whether FTS inhibited the transforming activity associated with NF-1-deficiency and to determine the effect of FTS on anchorage-independent growth, soft agar assays were performed. ST88-14 and STS26T cells were plated in soft agar and then treated with 0.1% DMSO as a control or with FTS (25 μM, 50 μM, or 75 μM) and grown for 3 weeks or 2 weeks, respectively. […] FTS inhibited colony formation of both cell lines; in the presence of 50 μM FTS, for example, colony formation was inhibited by 60% in STS26T cells and by 57% in ST88-14 cells. In the presence of 75 μM FTS, colony formation was inhibited by 84% and 87% in ST88-14 and STS26T cells, respectively.

STS26T cells = assay: soft agar assay, anchorage-independent growth; type: cell-based; settings: Homo sapiens, STS-26T, 336 h, 2 weeks, read-out: inhibition of colony formation
Description: as §3, §4

CC(C)=CCC/C(C)=C/CC/C(C)=C/CSc1ccccc1C(=O)O [FTS, S-farnesylthiosalicylic acid]
steady-state phospho-Akt (phospho-Akt; all NF-1 cell lines): significant reduction | increase in phosphor-Akt (phospho-Akt; non-NF-1 STS26T cells, steady state): 10%-20% | cells with stress fibers after FTS, relative to total cell number [1]: 11%-20% | increase in stress-fiber formation (non-NF-1 STS26T cells): 27%±11.9% | inhibition at 50 µM (ST88-14 cells; 50 μM FTS): 57% | inhibition at 75 µM (ST88-14 cells; 75 μM FTS): 84% | inhibition at 50 µM (STS26T cells; 50 μM FTS): 60% | inhibition at 75 µM (STS26T cells; 75 μM FTS): 87%
